Laboratory results: patent publication US20140142129A1, “METHODS OF TREATING A DISEASE OR DISORDER ASSOCIATED WITH BRUTON'S TYROSINE KINASE” (Celgene Avilomics Research, Inc,, priority 2012, published 2014)

Legend:
[1] = system: B-cell non-Hodgkin lymphoma; test: Single agent (monotherapy) clinical study in B-cell non-Hodgkin lymphoma patients; format: in vivo
[2] = Environmental stability (heat, acid, base); format: physicochemical
[3] = Safety in single dose studies in healthy subjects; format: in vivo, human

Row | Compound | patients with stable disease continuing on treatment ([1]; B-cell non-Hodgkin lymphoma, monotherapy, as of Sep. 11, 2012) | patients with decreased lymph node size ([1]; evaluable B-NHL patients, monotherapy) | environmental instabilities (heat, acid, base) [2] | safety [3] | maximum tolerated dose (MTD) ([1]; single agent, up to 750 mg PO QD)
1 | C=CC(=O)Nc1cccc(Nc2nc(Nc3ccc(OCCOC)cc3)ncc2F)c1.O=S(=O)(O)c1ccccc1 [Compound 1 besylate, N-(3-(5-fluoro-2-(4-(2-methoxyethoxy)phenylamino)pyrimidin-4-ylamino)phenyl)acrylamide benzenesulfonic acid salt] | 9 out of 17 | Six of eleven | no environmental instabilities | – | –
2 | C=CC(=O)Nc1cccc(Nc2nc(Nc3ccc(OCCOC)cc3)ncc2F)c1 [Compound 1, N-(3-(5-fluoro-2-(4-(2-methoxyethoxy)phenylamino)pyrimidin-4-ylamino)phenyl)acrylamide] | – | – | – | adequate safety | has not yet been reached
